Blank lines part the entries; values can stand above or below the compound they belong to.
Assays:
[1] = assay type: in vitro ADME, human; conditions: preliminary analysis
[2] = Stability of cyanidin chloride, PCA and PGA in saliva; assay type: in vitro ADME, human
[3] = Stability of cyanidin chloride in acidified water; assay type: physicochemical
[4] = assay type: in vitro ADME, human; conditions: individual glucosides in RdGrp extract, chlorhexidine rinse

Compound: OC[C@H]1O[C@@H](Oc2cc3c(O)cc(O)cc3[o+]c2-c2cc(O)c(O)c(O)c2)[C@H](O)[C@@H](O)[C@@H]1O [Dp, Delphinidin-3-O-glucoside]
Decrease of degradation in saliva after antibacterial treatment [4]: 30%

Compound: COc1cc(-c2[o+]c3cc(O)cc(O)c3cc2O[C@@H]2O[C@H](CO)[C@@H](O)[C@H](O)[C@H]2O)cc(OC)c1O [Mv, Malvidin-3-O-glucoside]
Decrease of degradation in saliva after antibacterial treatment [4]: 50%

Compound: O=Cc1c(O)cc(O)cc1O [PGA, phloroglucinol aldehyde]
Recovery after incubation in intact saliva ([2]; 25 nmol/mL, 37 °C, 60 min): 43%

Compound: COc1cc(-c2[o+]c3cc(O)cc(O)c3cc2O[C@@H]2O[C@H](CO)[C@@H](O)[C@H](O)[C@H]2O)ccc1O [Pn, Peonidin-3-O-glucoside]
Decrease of degradation in saliva after antibacterial treatment [4]: 50%

Compound: COc1cc(-c2[o+]c3cc(O)cc(O)c3cc2O[C@@H]2O[C@H](CO)[C@@H](O)[C@H](O)[C@H]2O)cc(O)c1O [Pt-3-glu, Petunidin-3-O-glucoside]
Decrease of degradation in saliva after antibacterial treatment [4]: 10%

More lines, now with the values ahead:

Chalcone glucosides of Cy as share of the original amount incubated in saliva ex vivo [1]: ≤ 30%
Compound: OC[C@H]1O[C@@H](Oc2cc3c(O)cc(O)cc3[o+]c2-c2ccc(O)c(O)c2)[C@H](O)[C@@H](O)[C@@H]1O [Cy-3-glu, Cyanidin-3-O-glucoside]

Cyanidin aglycone degraded upon addition to intact saliva ([2]; human, 0 min, 25 nmol/L): > 90%
PCA as share of the degraded CyCl in saliva ([2]; human, 0 min, 25 nmol/mL): 15.3%
PCA as share of the degraded CyCl in saliva ([2]; human, 60 min, 25 nmol/mL): 9.6%
CyCl recovered immediately after addition to acidified water ([3]; 0 min): Greater than 86%
CyCl lost after incubation in acidified water ([3]; 60 min): greater than 88%
Compound: Oc1cc(O)c2cc(O)c(-c3ccc(O)c(O)c3)[o+]c2c1 [CyCl, cyanidin chloride]

recovery at 60 min, 25 nmol/mL ([2]; human): 90%
Compound: O=C(O)c1ccc(O)c(O)c1 [PCA, protocatechuic acid]

Source: article PMC3839579 (Food chemistry, 2012)
